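Dose response: 5 concentrations. Exposure: 48 h. Format: 96-well plates. Endpoint: linear interpolation; highest concentration if not reached. GI50: concentration for 50% inhibition of growth. The concentration for full growth arrest is given as TGI.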
Tests used:
Experiment in all cases: DTP human tumour cell line panel, 48 h
CAKI-1 renal = system: CAKI-1 renal
COLO 205 colon = system: COLO 205 colon
HCC-2998 colon = system: HCC-2998 colon
HT29 colon = system: HT29 colon
IGROV1 ovarian = system: IGROV1 ovarian
MALME-3M melanoma = system: MALME-3M melanoma
NCI-H23 lung = system: NCI-H23 lung
NCI-H522 lung = system: NCI-H522 lung
OVCAR-3 ovarian = system: OVCAR-3 ovarian
OVCAR-8 ovarian = system: OVCAR-8 ovarian
SF-295 CNS = system: SF-295 CNS
SK-MEL-5 melanoma = system: SK-MEL-5 melanoma
SN12C renal = system: SN12C renal
SR leukemia = system: SR leukemia
HS 578T breast = system: HS 578T breast
MCF7 breast = system: MCF7 breast
PC-3 prostate = system: PC-3 prostate
RXF 393 renal = system: RXF 393 renal

Structure (SMILES)	TGI (CAKI-1 renal) [µM]	TGI (COLO 205 colon) [µM]	TGI (HCC-2998 colon) [µM]	TGI (HT29 colon) [µM]	TGI (IGROV1 ovarian) [µM]	TGI (MALME-3M melanoma) [µM]	TGI (NCI-H23 lung) [µM]	TGI (NCI-H522 lung) [µM]	TGI (OVCAR-3 ovarian) [µM]	TGI (OVCAR-8 ovarian) [µM]	TGI (SF-295 CNS) [µM]	TGI (SK-MEL-5 melanoma) [µM]	TGI (SN12C renal) [µM]	TGI (SR leukemia) [µM]	TGI (HS 578T breast) [µM]	TGI (MCF7 breast) [µM]	TGI (PC-3 prostate) [µM]	TGI (RXF 393 renal) [µM]	GI50 (OVCAR-3 ovarian) [µM]	GI50 (RXF 393 renal) [µM]
C=CCN(C)CN(C)c1nc(N(C)C)nc(N(C)C)n1	> 100	> 100	> 100	> 100	> 100	> 100	> 100	51.5	> 100	> 100	> 100	> 100	> 100	> 100	–	–	–	–	–	–
Cc1c2c(n(CCN(C)C)c1C)NN=C(C#N)S2(=O)=O	–	> 100	> 100	> 100	> 100	> 100	> 100	–	> 100	> 100	–	–	> 100	–	> 100	> 100	> 100	–	–	–
CCOC(=O)c1cnc(-n2[nH]c3c(c2=O)CCCC3)[nH]c1=O	> 100	> 100	–	> 100	> 100	> 100	> 100	> 100	–	> 100	> 100	> 100	> 100	> 100	> 100	–	> 100	–	–	–
O=C=NCCCCCCN1C(=O)N2C(c3ccccc3)N(CCCCCCN=C=O)C(=O)N2C1c1ccccc1 (centres undefined)	> 100	> 100	> 100	> 100	> 100	> 100	> 100	–	> 100	> 100	> 100	> 100	> 100	> 100	–	> 100	> 100	> 100	–	–
CCOC(=O)c1ccc(-n2c(SCC)nc3sc(C)c(C)c3c2=O)cc1	> 100	> 100	> 100	> 100	> 100	> 100	> 100	> 100	> 100	> 100	> 100	> 100	> 100	> 100	–	–	–	> 100	–	–
CCS(=O)(=O)CCn1cnc2c1c(=O)n(C)c(=O)n2C	> 100	> 100	> 100	> 100	> 100	–	> 100	> 100	> 100	> 100	> 100	> 100	> 100	–	> 100	> 100	> 100	> 100	–	–
Cc1ccc(S(=O)(=O)NC(=O)Nc2ccc(S(N)(=O)=O)cc2S(N)(=O)=O)cc1	> 100	> 100	–	> 100	> 100	> 100	> 100	> 100	> 100	> 100	> 100	> 100	> 100	–	> 100	> 100	> 100	> 100	–	–
O=c1cc(-c2ccccc2)oc2cc(OCCSCCCCCCCCCCSCCOc3ccc4c(=O)cc(-c5ccccc5)oc4c3)ccc12	> 100	> 100	> 100	> 100	> 100	> 100	> 100	> 100	> 100	> 100	> 100	> 100	> 100	> 100	–	–	–	> 100	–	–
COc1cc(/C=C2/C(=O)N(C(=O)c3ccc(Cl)cc3)N=C2C)cc(OC)c1OC	> 100	> 100	> 100	> 100	> 100	> 100	> 100	> 100	> 100	> 100	> 100	> 100	> 100	–	–	–	–	> 100	–	–
Cc1ccc(O)c(C(=O)CCCC(=O)c2cc(C)ccc2O)c1	> 100	> 100	> 100	> 100	> 100	> 100	> 100	> 100	–	> 100	> 100	> 100	> 100	–	–	–	–	–	–	–
COc1cc2c(cc1OC)C(=O)C(C1=C(SC(=N)N)C(=O)c3cc(OC)c(OC)cc31)C2 (centres undefined)	> 100	> 100	> 100	> 100	> 100	> 100	> 100	> 100	> 100	> 100	> 100	> 100	> 100	> 100	–	–	–	–	–	–
Cn1ncnc1CCc1ccccc1	> 100	> 100	–	> 100	> 100	> 100	> 100	> 100	> 100	> 100	> 100	> 100	> 100	> 100	–	–	–	> 100	–	–
CCOC(=O)/C=C1\c2ccccc2C(=O)N1CC(=O)OCC	> 100	> 100	–	–	> 100	> 100	> 100	> 100	> 100	> 100	> 100	> 100	> 100	–	> 100	–	> 100	> 100	–	–
CC(C)NCCC(O)c1cc2ccccc2o1 (centres undefined)	> 100	> 100	–	> 100	> 100	> 100	> 100	> 100	> 100	> 100	> 100	> 100	> 100	–	> 100	> 100	> 100	> 100	–	–
O=c1cc(-c2ccc(Cl)cc2)oc2cc(OCCCOc3ccc4c(=O)cc(-c5ccc(Cl)cc5)oc4c3)ccc12	> 100	> 100	> 100	> 100	> 100	> 100	> 100	> 100	> 100	> 100	> 100	> 100	> 100	> 100	–	–	–	> 100	–	–
O=C(c1ccc(Br)cc1)n1c2ccc(Br)cc2c2nc3ccccc3nc21	> 100	> 100	> 100	> 100	> 100	> 100	> 100	> 100	> 100	> 100	> 100	> 100	> 100	> 100	–	> 100	> 100	> 100	–	–
CN(C)C(=O)Oc1ccc(-c2cn3cc(NC(=O)c4ccccc4)ccc3n2)cc1	> 100	32	> 100	> 100	> 100	–	> 100	> 100	> 100	> 100	> 100	74.1	> 100	> 100	–	> 100	> 100	> 100	–	–
O=C(O)CCCOc1cc(-c2ccccc2F)nc2cc3c(cc12)OCO3	> 100	27.4	> 100	> 100	15.8	> 100	> 100	–	6.74	> 100	–	> 100	> 100	> 100	–	> 100	> 100	> 100	2.35	7.68
CSc1nc2[nH]c(=O)c(C)nc2c(=O)[nH]1	> 100	> 100	> 100	> 100	> 100	> 100	> 100	> 100	> 100	> 100	> 100	> 100	> 100	> 100	–	–	–	> 100	–	–
NNc1[nH]c(=S)[nH]c1C(N)=O	–	> 100	> 100	> 100	> 100	> 100	–	> 100	> 100	> 100	> 100	> 100	> 100	–	> 100	> 100	> 100	> 100	–	–
C/C=C/C(=O)N1C(=O)OC[C@@H]1c1ccccc1	32.6	39.1	41.3	33.7	37.1	39.7	32.8	39.1	33.7	38.5	> 100	38.4	37.2	–	76.2	31.5	37.5	37.2	–	–
CC(=O)Nc1ccc(C(=O)NN2C(=O)C(Cl)C2c2ccccc2O)cc1 (centres undefined)	> 100	> 100	–	> 100	> 100	> 100	78.3	> 100	90.3	> 100	> 100	> 100	> 100	–	–	–	–	61	–	–
C=C1CN(Cc2ccccc2)[C@@H]2CCCCC[C@H](C#N)[C@H]12	> 100	> 100	> 100	> 100	> 100	> 100	> 100	> 100	> 100	> 100	> 30.7	> 100	> 100	> 100	–	> 100	> 100	> 100	–	–
Nc1nc(Cl)c2nnn(CC3CCC(CO)C3)c2n1 (centres undefined)	> 100	> 100	> 100	–	–	–	–	–	> 100	–	> 100	> 100	> 100	–	> 100	> 100	> 100	> 100	–	–
CC1(C)CC(=O)c2c(nc(SSc3nc4c(c(-c5ccccc5)c3C#N)C(=O)CC(C)(C)C4)c(C#N)c2-c2ccccc2)C1	> 10	> 10	> 10	> 10	> 10	> 10	> 10	> 10	> 10	> 10	> 10	> 10	> 10	–	> 10	> 10	> 10	> 10	–	–
COC(=O)[C@@]12OC[C@]34C([C@@H](O)C1O)[C@@]1(C)CC(=O)C(OC(=O)/C=C(/c5ccccc5)C(F)(F)F)=C(C)C1C[C@H]3OC(=O)[C@H](O)[C@H]42 (some centres undefined)	> 50	30.2	22.3	46.3	21.2	28.9	19.7	24.5	–	> 50	28.1	31.4	> 50	19.4	–	–	–	45.6	–	–
CC(C)C(/C=C/c1ccc(Br)cc1)=N\NC(N)=O	> 100	> 100	25.7	> 100	> 100	–	> 100	> 100	–	> 100	> 100	> 100	> 100	> 100	–	–	–	> 100	–	–
O=c1[nH]n(Cc2ccccn2)c2ccc([N+](=O)[O-])cc12	> 100	> 100	> 100	> 100	> 100	> 100	> 100	> 100	> 100	> 100	–	> 100	> 100	> 100	> 100	–	> 100	> 100	–	–
NC(Cc1ccccc1)(C(=O)O)C(=O)O	> 100	> 100	> 100	> 100	> 100	> 100	> 100	> 100	> 100	> 100	> 100	> 100	> 100	–	> 100	> 100	> 100	> 100	–	–
N#CCCN(CCN(C(=O)Nc1ccccc1)c1ccccc1)C(=O)Nc1ccccc1	> 63.1	> 100	> 100	> 100	> 100	> 100	> 100	> 100	> 100	> 100	> 100	> 100	> 100	> 100	–	> 100	> 100	> 90.1	–	–
